Source: patent US7244754B2, “2-methylthiazolidine-2,4-dicarboxylic acid and salts thereof for treatment of neurodegenerative diseases” (priority 2002, dated 2007)

Legend:
MNRI mice = test: Apoplexy model: occlusion of the middle cerebral artery in mice, infarction surface by neutral red staining; type: in vivo; settings: application after or before occlusion, as in examples 3 and 4
Excerpt: In another animal experiment model (apoplexy model) it could be shown (examples 3 and 4) that 2-MTDC as well as salts of 2-MTDC have a cerebroprotective effect.
The following test series deals with the examination of the neuroprotective effect of 2-MTDC-Na in application of 2-MTDC-Na after the ischemia.
Per test group 13 through 16 MNRI mice were employed. The middle cerebral artery of the mice was occluded according to the method of Welsh (F. A. Welsh, T. Sakamoto, A. E. McKee, R. E. Sims, J. Neurochem. 1987, 49, 846-851). For that purpose the mice are anesthetized with tribromoethanol (600 mg/kg body weight, intraperitoneally). Immediately after the anesthesia a small cavity was drilled into the mice cranium to lay open the middle cerebral artery. The strain as well as both arms of the middle cerebral artery were occluded via electro coagulation. Meanwhile the blood heat of the mice was kept on 37° C.±1° C. by utilizing a heating lamp. Subsequently the mice were kept at a surrounding temperature of 30° C. for another 2 h.
One group of mice was injected intraperitoneally 2-MTDC-Na (200 mg/kg 2-MTDC-Na dissolved in 0.9% NaCl solution) 15 minutes after and another group 60 minutes after the occlusion of the middle cerebral artery. A third group received the vehicle only (0.9% NaCl solution without 2-MTDC-Na).
For the following histologic examination 2 days after the occlusion of the middle cerebral artery the mice were anesthetized again with tribromoethanol and received intraperitoneally applied 0.5 ml of a 1.5% solution of neutral red (toluylene red, Acros Chimica) in addition. The brains were extracted and kept for 24 h in a fixative solution (4% formalin with phosphate buffer at pH 7.4).
The tissue on the surface of the brain which was not colored by neutral red was measured as surface region affected by infarction under utilizing a color analysis system (Kontron, Eching, Germany) (C. Backhauβ, C. Karkoutly, M. Welsh, J. Krieglstein, J. Pharmacol Toxicol Methods, 1992, 27 (2), 27-32).
The execution of the test according to example 3 was repeated whereas 2-MTDC-Na was applied one hour before the occlusion of the middle cerebral artery (MCA-O: occlusion of the middle cerebral artery).

dopaminergic neurons = test: Intrastriatal sodium malonate lesion in rats; transmitters and metabolites in striatum and substantia nigra by HPLC; type: in vivo, Wistar rats; settings: for activity of dopaminergic neurons (3-methoxytyramine concentration): lysine salt injected intraperitoneally four to five days before measuring, rats
striatum of rats = settings: seven days after injecting the malonate; cited from earlier work

CC1(C(=O)O)N[C@H](C(=O)O)CS1 (mixture of isomers) [2-MTDC, (2RS,4R)-2-methylthiazolidine-2,4-dicarboxylic acid]
infarction extent induced by occlusion of the cerebral artery (test series of examples 3 and 4) (MNRI mice): capable of reducing the infarction extent

CC1(C(=O)O)NC(C(=O)O)CS1.NCCCCC(N)C(=O)O.NCCCCC(N)C(=O)O (centres unmarked) [2-MTDC-lys]
infarction extent induced by occlusion of the cerebral artery (test series of examples 3 and 4) (MNRI mice; listed as lysine salts of 2-MTDC): capable of reducing the infarction extent | influence on the concentration of dopamine, DOPAC, HVA (dopaminergic neurons; 2-MTDC-lys solely (no malonate), 2x0.8 mmol/kg i.p., four days after last application): no influence | effect on dopaminergic versus serotonergic neurons (5-HT, 5-HIAA) (dopaminergic neurons; chosen dose rate, examination period of four days from last application): affects obviously dopaminergic neurons but not serotonergic neurons | activity of dopaminergic neurons (3-methoxytyramine concentration) (dopaminergic neurons): long persistent activation | activity of dopaminergic neurons (3-methoxytyramine concentration) (dopaminergic neurons; listed as lysine salt of 2-MTDC): intense activation of the dopaminergic neurons | effect of malonate on the reduction of dopamine and dopamine metabolite concentrations (neuroprotection) (dopaminergic neurons; pretreatment 2x0.8 mmol/kg i.p., 2 μmol sodium malonate into left striatum, four days after last application): prevents the toxic effect of malonate | neurodegeneration of nerve ends in the striatum and cell bodies in the substantia nigra (dopaminergic neurons; treatment before malonate (prophylactic)): prevents the neurodegeneration

C[C@@]1(C(=O)O)N[C@H](C(=O)O)CS1 [(2R,4R)-2-methylthiazolidine-2,4-dicarboxylic acid]
infarction extent induced by occlusion of the cerebral artery (test series of examples 3 and 4) (MNRI mice): capable of reducing the infarction extent

C[C@]1(C(=O)O)N[C@H](C(=O)O)CS1 [(2S,4R)-2-methylthiazolidine-2,4-dicarboxylic acid]
infarction extent induced by occlusion of the cerebral artery (test series of examples 3 and 4) (MNRI mice): capable of reducing the infarction extent

O=C([O-])CC(=O)[O-].[Na+].[Na+] [malonate, sodium malonate]
concentration of dopamine in the striatum compared to the contralateral striatum (striatum of rats): 6%
